The text below walks through data of patent US20230151003A1, “COMPOUNDS AND METHODS OF USE” (Exelixis, Inc., priority 2020, published 2023).

What all share (format): biochemical
One assay concerns the target T1, Human AXL (Homo sapiens, UniProt P30530).
T1 construct: Human AXL (residues 464-885; CarnaBio, 1 ng/ well); purchased CarnaBio
T1 sequence (P30530 464-885 isoform P30530-2): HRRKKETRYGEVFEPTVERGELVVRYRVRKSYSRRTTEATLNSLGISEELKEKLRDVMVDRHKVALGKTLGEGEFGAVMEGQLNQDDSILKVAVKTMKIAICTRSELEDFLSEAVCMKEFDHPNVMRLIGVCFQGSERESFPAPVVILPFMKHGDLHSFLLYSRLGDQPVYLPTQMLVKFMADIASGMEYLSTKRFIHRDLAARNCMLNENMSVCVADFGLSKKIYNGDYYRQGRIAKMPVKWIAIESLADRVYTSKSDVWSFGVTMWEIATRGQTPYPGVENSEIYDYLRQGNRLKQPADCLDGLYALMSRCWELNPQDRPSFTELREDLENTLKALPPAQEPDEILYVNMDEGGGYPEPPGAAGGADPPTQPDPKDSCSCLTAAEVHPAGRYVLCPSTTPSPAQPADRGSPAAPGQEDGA
The experiment in a line: Human AXL kinase assay (HTRF KinEase). Conditions: Table 2 Biological Activities, ATP at Km (1.0 μM). How it is done:
(§1) Kinase activity and compound inhibition were investigated using the HTRF® KinEase assay (Cisbio Cat #62TKOPEB) per manufacturer's instructions. In short, compounds were delivered in 300 nL volumes at 10 different concentrations in DMSO (3% final) to empty 384-well assay plates (Corning cat #3824). A mixture of enzyme, 1 μM biotynlated peptide substrate, and buffer in 10 μL volume was added. The assay was started upon the addition of ATP (at Km). The 10 μL reaction was incubated at room temperature. The reaction was stopped upon the addition of detection buffer containing streptavidin-XL665 (5 μL) and TK antibody-Eu3+ (5 μL). After a 60 min incubation at room temperature, the fluorescence at 665 nm and 620 nm was read on an Envision microplate reader (Perkin Elmer). Kinase activity normalized to DMSO (100% activity) and reference compound at 1 μM and (0% activity) was calculated using the fluorescence ratio […]. IC50 values were calculated by nonlinear regression analysis using a 4-parameter logistic curve fit in ActivityBase XE (IDBS).
Human AXL (residues 464-885; CarnaBio, 1 ng/ well) was incubated with enzymatic buffer (Cisbio) supplemented with 5 mM MgCl2, 1 mM DTT, and Supplemental Enzymatic Buffer (SEB; Cisbio). The mixture was added to the pre-plated compounds. The reaction was initiated upon addition of ATP at Km (1.0 μM). The reaction was incubated at room temperature for 50 min and stopped upon the addition of SA-XL665 and TK-antibody both diluted in EDTA-containing kinase detection buffer (Cisbio). The kinase activity was calculated as stated above and the IC50 values were reported.

For the next assay, the target named is T2, Human MER (Homo sapiens, UniProt Q12866).
T2 construct: Human MER (residues 528-999; CarnaBio, 1 ng/ well); purchased CarnaBio
T2 sequence (Q12866 528-999): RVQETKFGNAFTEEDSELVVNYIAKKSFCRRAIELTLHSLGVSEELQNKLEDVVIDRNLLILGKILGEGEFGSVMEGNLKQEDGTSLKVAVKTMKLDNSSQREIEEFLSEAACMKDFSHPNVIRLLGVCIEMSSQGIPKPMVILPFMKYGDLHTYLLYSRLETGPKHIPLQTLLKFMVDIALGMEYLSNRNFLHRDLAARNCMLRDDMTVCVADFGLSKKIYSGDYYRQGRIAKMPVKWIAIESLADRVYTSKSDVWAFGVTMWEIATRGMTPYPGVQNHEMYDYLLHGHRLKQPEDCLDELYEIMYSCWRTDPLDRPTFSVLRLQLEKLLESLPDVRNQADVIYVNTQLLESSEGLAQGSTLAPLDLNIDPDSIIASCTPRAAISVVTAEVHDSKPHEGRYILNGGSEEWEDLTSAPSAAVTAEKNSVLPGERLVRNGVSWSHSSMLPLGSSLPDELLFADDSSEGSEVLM
The experiment in a line: Human MER kinase assay (HTRF KinEase). Conditions: Table 2 Biological Activities, ATP at Km (40 μM). How it is done:
as §1
Human MER (residues 528-999; CarnaBio, 1 ng/ well) was incubated with enzymatic buffer (Cisbio) supplemented with 5 mM MgCl2 and 1 mM DTT. The mixture was added to the pre-plated compounds. The reaction was initiated upon addition of ATP at Km (40 μM). The reaction was incubated at room temperature for 60 min and stopped upon the addition of SA-XL665 and TK-antibody both diluted in EDTA-containing kinase detection buffer (Cisbio). The kinase activity was calculated as stated above and the IC50 values were reported.

For the next assay, the target named is Met (Homo sapiens, UniProt P08581). Put plainly: Human MET kinase assay (HTRF KinEase). More on the design: Human MET (residues 956-1390; CarnaBio, 0.1 ng/ well); purchased CarnaBio. The settings on record: Table 2 Biological Activities, ATP at Km (3.0 μM), read-out: c-Met IC50. The procedure:
as §1
Human MET (residues 956-1390; CarnaBio, 0.1 ng/ well) was incubated with enzymatic buffer (Cisbio) supplemented with 5 mM MgCl2, 1 mM DTT and 1 mM MnCl2. The mixture was added to the pre-plated compounds. The reaction was initiated upon addition of ATP at Km (3.0 μM). The reaction was incubated at room temperature for 40 min and stopped upon the addition of SA-XL665 and TK-antibody both diluted in EDTA-containing kinase detection buffer (Cisbio). The kinase activity was calculated as stated above and the IC50 values were reported.

The target in a further assay is KDR (Homo sapiens, UniProt P35968). The experiment in a line: Human KDR kinase assay (HTRF KinEase). The settings on record: Table 2 Biological Activities, ATP at Km (4.0 μM). Further details: Human KDR (residues 790-1356; CarnaBio, 0.1 ng/ well); purchased CarnaBio. How it is done:
as §1
Human KDR (residues 790-1356; CarnaBio, 0.1 ng/ well) was incubated with enzymatic buffer (Cisbio) supplemented with 5 mM MgCl2, 1 mM MnCl2, and 1 mM DTT. The mixture was added to the pre-plated compounds. The reaction was initiated upon addition of ATP at Km (4.0 μM). The reaction was incubated at room temperature for 40 min and stopped upon the addition of SA-XL665 and TK-antibody both diluted in EDTA-containing kinase detection buffer (Cisbio). The kinase activity was calculated as stated above and the IC50 values were reported.

Chain of Met (P08581 956-1390): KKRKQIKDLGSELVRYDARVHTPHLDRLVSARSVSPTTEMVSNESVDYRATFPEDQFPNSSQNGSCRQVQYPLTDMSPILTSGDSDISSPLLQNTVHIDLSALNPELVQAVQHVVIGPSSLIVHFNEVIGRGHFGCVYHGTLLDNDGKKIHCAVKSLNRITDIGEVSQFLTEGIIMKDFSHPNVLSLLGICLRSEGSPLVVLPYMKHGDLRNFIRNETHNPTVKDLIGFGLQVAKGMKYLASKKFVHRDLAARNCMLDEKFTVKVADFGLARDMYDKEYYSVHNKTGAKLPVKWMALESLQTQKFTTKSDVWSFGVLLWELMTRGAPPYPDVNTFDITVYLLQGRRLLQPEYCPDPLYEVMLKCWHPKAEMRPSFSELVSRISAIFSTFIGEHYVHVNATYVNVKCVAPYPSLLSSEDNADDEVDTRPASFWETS
Chain of KDR (P35968 790-1356): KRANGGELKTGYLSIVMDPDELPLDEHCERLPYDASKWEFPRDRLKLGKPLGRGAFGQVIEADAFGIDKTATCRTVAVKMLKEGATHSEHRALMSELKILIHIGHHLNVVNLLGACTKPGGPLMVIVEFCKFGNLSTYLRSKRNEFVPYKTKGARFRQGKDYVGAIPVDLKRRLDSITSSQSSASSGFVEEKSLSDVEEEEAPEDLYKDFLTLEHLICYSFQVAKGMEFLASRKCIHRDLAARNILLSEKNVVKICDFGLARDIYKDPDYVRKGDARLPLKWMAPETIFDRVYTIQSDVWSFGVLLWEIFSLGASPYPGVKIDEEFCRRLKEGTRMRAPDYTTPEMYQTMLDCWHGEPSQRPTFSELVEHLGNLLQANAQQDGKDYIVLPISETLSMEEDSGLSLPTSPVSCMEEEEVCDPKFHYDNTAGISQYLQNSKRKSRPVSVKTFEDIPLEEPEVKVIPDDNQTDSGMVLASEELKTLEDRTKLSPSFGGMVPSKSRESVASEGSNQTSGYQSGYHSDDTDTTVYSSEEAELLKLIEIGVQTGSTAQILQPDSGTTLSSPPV

For `COc1cc2nccc(Oc3ccc(NC(=O)c4cccn(-c5ccc(F)cn5)c4=O)cc3F)c2nc1OC` [Compound 42, N-[4-[(6,7-Dimethoxy-1,5-naphthyridin-4-yl)oxy]-3-fluorophenyl]-1-(5-fluoropyridin-2-yl)-2-oxopyridine-3-carboxamide], the IC50 against Human AXL, on Human MER, on Met and at KDR was at most 100 nM in each case.
Take `COc1cc2nccc(Oc3ccc(NC(=O)c4cn(C)c(C)c(-c5ccc(F)cn5)c4=O)cc3)c2nc1OC` [Compound 86, N-[4-[(6,7-Dimethoxy-1,5-naphthyridin-4-yl)oxy]phenyl]-5-(5-fluoropyridin-2-yl)-1,6-dimethyl-4-oxopyridine-3-carboxamide]: the IC50 at Human AXL is at most 100 nM; at Human MER, at most 100 nM; on Met, at most 100 nM; against KDR it was 300 to 1000 nM.
For `COc1cc2nccc(Oc3ccc(NC(=O)c4c(C)ncc(-c5ccccn5)c4O)cc3F)c2nc1OC` [Compound 69, N-[4-[(6,7-Dimethoxy-1,5-naphthyridin-4-yl)oxy]-3-fluorophenyl]-4-hydroxy-2-methyl-5-pyridin-2-ylpyridine-3-carboxamide], the half-maximal inhibitory concentration (IC50) on Human AXL, against Human MER, at Met and on KDR was at most 100 nM in each case.
Consider `COc1cnc2c(Oc3ccc(NC(=O)c4c(C)ncc(-c5ccccn5)c4O)cc3F)ccnc2c1` [Compound 70, N-[3-Fluoro-4-[(7-methoxy-1,5-naphthyridin-4-yl)oxy]phenyl]-4-hydroxy-2-methyl-5-pyridin-2-ylpyridine-3-carboxamide], for which the IC50 against Human AXL, on Human MER, at Met and at KDR was at most 100 nM throughout.
For `COc1cc2nccc(Oc3ccc(NC(=O)c4c(C)ccn(-c5ccc(F)cn5)c4=O)cc3F)c2nc1OC` [Compound 41, N-[4-[(6,7-Dimethoxy-1,5-naphthyridin-4-yl)oxy]-3-fluorophenyl]-1-(5-fluoropyridin-2-yl)-4-methyl-2-oxopyridine-3-carboxamide], the IC50 against Human AXL, against Human MER, at Met and against KDR was at most 100 nM throughout.
In the case of `COc1cc2nccc(Oc3ccc(NC(=O)c4cnc(C)c(-c5ccc(F)cn5)c4O)cc3F)c2nc1OC` [Compound 85, N-[4-[(6,7-Dimethoxy-1,5-naphthyridin-4-yl)oxy]-3-fluorophenyl]-5-(5-fluoropyridin-2-yl)-4-hydroxy-6-methylpyridine-3-carboxamide], the IC50 against Human AXL, on Human MER, at Met and against KDR was at most 100 nM each time.
As to `COc1ccc2nccc(Oc3ccc(NC(=O)c4ccc(C)n(-c5ncc(F)cc5C)c4=O)cc3F)c2n1` [Compound 53, N-[3-Fluoro-4-[(6-methoxy-1,5-naphthyridin-4-yl)oxy]phenyl]-1-(5-fluoro-3-methylpyridin-2-yl)-6-methyl-2-oxopyridine-3-carboxamide], the IC50 against Human AXL is at most 100 nM; against Human MER it was at most 100 nM; on Met, at most 100 nM; at KDR it was 300 to 1000 nM.
For `COc1cc2nccc(Oc3ccc(NC(=O)c4ccc(C)n(-c5ccc(F)cn5)c4=O)cc3)c2nc1OC` [Compound 44, N-[4-[(6,7-Dimethoxy-1,5-naphthyridin-4-yl)oxy]phenyl]-1-(5-fluoropyridin-2-yl)-6-methyl-2-oxopyridine-3-carboxamide], the IC50 against Human AXL, against Human MER, on Met and on KDR was at most 100 nM in each case.
As to `Cc1ccc(C(=O)Nc2ccc(Oc3ccnc4cccnc34)c(F)c2)c(=O)n1-c1ccc(F)cn1` [Compound 48, N-[3-Fluoro-4-(1,5-naphthyridin-4-yloxy)phenyl]-1-(5-fluoropyridin-2-yl)-6-methyl-2-oxopyridine-3-carboxamide], the IC50 on Human AXL is at most 100 nM; at Human MER, at most 100 nM; on Met, at most 100 nM; against KDR, 300 to 1000 nM.
For `COc1cc2nccc(Oc3ccc(NC(=O)c4ccc(C)n(-c5ccc(F)cn5)c4=O)cc3F)c2nc1OC` [Compound 43, N-[4-[(6,7-Dimethoxy-1,5-naphthyridin-4-yl)oxy]-3-fluorophenyl]-1-(5-fluoropyridin-2-yl)-6-methyl-2-oxopyridine-3-carboxamide], the IC50 against Human AXL, against Human MER, at Met and on KDR was at most 100 nM in each case.
